According to patent US12006294B2, “Therapeutic compounds” (REGENTS OF THE UNIVERSITY OF MINNESOTA, priority 2017, dated 2024):
Where a name gives a salt, the structure may show the parent alone. Read-outs that look alike come from different tables or passages of the source.

Key:
CAD5 cells = type: cell-based
Hela Cells = assay: Cellular ER stress model (tunicamycin, WST-8 cell viability); conditions: for AntiERStress (% Cell Survival): HeLa cells, tunicamycin 48 hours, WST-8; for % Cell Survival Cmpd(2.5 μM) + Tuni: compound 2.5 μM + tunicamycin, WST-8 viability 48 hours after tunicamycin treatment
[1] = Homo sapiens, HeLa, 48 h, read-out: % Cell Survival Cmpd(2.5 μM) + Tuni, Hela cells, compound 2.5 μM + tunicamycin, WST-8 viability 48 hours after tunicamycin treatment
[2] = Homo sapiens, HeLa, 48 h, read-out: Compounds ERS (vs Tn), ERS activity vs Tuni = % cell survival (compound)/% cell survival (tunicamycin), compound 2.5 μM

SMILES | 1/Elispot (CAD5 cells) | AntiPrion (Number of Cells × 10^4) (CAD5 cells) | EliSpot (Spots/10000 Cells) (CAD5 cells) | Elispot (vs PC) (CAD5 cells) | AntiERStress (% Cell Survival) (Hela Cells) | viability at 2.5 µM (Hela Cells; [1]) | viability at 2.5 µM (Hela Cells; [2]) | % Cell Survival Cmpd(2.5 μM) + Tuni (Hela Cells; Hela cells) | Compounds ERS (vs Tn) (Hela Cells; ERS activity vs Tuni = % cell survival (compound)/% cell survival (tunicamycin), compound 2.5 μM) | % Cell Survival Cmpd + Tuni (Hela Cells; Hela cells, Salubrinal 25 μM + tunicamycin, WST-8 48 hours) | viability at 25 µM (Hela Cells; Homo sapiens, HeLa, 48 h, read-out: Compounds ERS (vs Tn), % cell survival (compound)/% cell survival (tunicamycin), Salubrinal 25 μM)
N=C(N)N/N=C/c1c(Cl)cc(O)cc1Cl [BC1-167-1, (E)-2-(2,6-dichloro-4-hydroxybenzylidene)hydrazinecarboximidamide acetate] | 0.87 | 9 × 10^4 | 1500 Spots/10000 Cells | 1.15 | 45.93 % Cell Survival |  |  |  |  |  | 
N=C(N)N/N=C\c1c(Cl)cc(O)cc1Cl [BC1-171-1] | 1.00 | 16 × 10^4 | 1300 Spots/10000 Cells | 1.00 | 52.54 % Cell Survival |  |  |  |  |  | 
Clc1cc(Cl)cc(NC2=NCCN2)c1 [BC1-242-2, N-(3,5-dichlorophenyl)-4,5-dihydro-1H-imidazol-2-amine] | 1.86 | 50 × 10^4 | 700 Spots/10000 Cells | 0.54 | 57.56 % Cell Survival |  |  |  |  |  | 
N=C(N)NCCc1c(Cl)cccc1Cl [BC1-252-2, 1-(2,6-dichlorophenethyl)guanidine] | 0.72 | 8 × 10^4 | 1800 Spots/10000 Cells | 1.38 | 49.49 % Cell Survival |  |  |  |  |  | 
N=C(N)Nc1c(Cl)cccc1Cl [BC1-256-2, 1-(2,6-dichlorophenyl)guanidine] | 1.44 | 32 × 10^4 | 900 Spots/10000 Cells | 0.69 | 54.77 % Cell Survival |  |  |  |  |  | 
C/C(=N\NC(=N)N)c1c(Cl)cccc1Cl [BC1-259-2, (E)-2-(1-(2,6-dichlorophenyl)ethylidene)hydrazinecarboximidamide] | 1.63 | 26 × 10^4 | 800 Spots/10000 Cells | 0.62 | 62.87 % Cell Survival |  |  |  |  |  | 
Cl.NC(=O)N/N=C/c1c(Cl)cccc1Cl [BC1-262-1, (E)-2-(2,6-dichlorobenzylidene)hydrazinecarboxamide hydrochloride] | 1.86 | 53 × 10^4 | 700 Spots/10000 Cells | 0.54 | 64.7 % Cell Survival |  |  |  |  |  | 
N=C(N)Nn1ccnc1-c1c(Cl)cccc1Cl [BC1-267-2, 1-(2-(2,6-dichlorophenyl)-1H-imidazol-1-yl)guanidine] | 1.00 | 18 × 10^4 | 1300 Spots/10000 Cells | 1.00 | 64.26 % Cell Survival | 42.3% | 102% |  |  |  | 
N=C(N)N/N=C/c1c(Cl)ccc(Cl)c1Cl [BC1-282-1, (E)-2-(2,3,6-trichlorobenzylidene)hydrazinecarboximidamide acetate] | 0.76 | 10 × 10^4 | 1700 Spots/10000 Cells | 1.31 | 101.2576 % Cell Survival | 71.6% | 172% |  |  |  | 
N=C(N)N/N=C/c1ccccc1 [BC1-295-1, (E)-2-benzylidenehydrazinecarboximidamide acetate] | 2.17 | 37 × 10^4 | 600 Spots/10000 Cells | 0.46 | 60.58 % Cell Survival |  |  |  |  |  | 
N=C(N)N/N=C/c1ccccc1Br [BC1-297-1, (E)-2-(2-bromobenzylidene)hydrazinecarboximidamide acetate] | 0.93 | 8 × 10^4 | 1400 Spots/10000 Cells | 1.08 | 90.49 % Cell Survival |  |  |  |  |  | 
Cc1ccccc1/C=N/NC(=N)N [BC2-3-1, (E)-2-(2-methylbenzylidene)hydrazinecarboximidamide acetate] | 1.86 | 28 × 10^4 | 700 Spots/10000 Cells | 0.54 | 82.07 % Cell Survival |  |  |  |  |  | 
N=C(N)N/N=C/c1c(F)cccc1Cl [BC2-5-1, (E)-2-(2-chloro-6-fluorobenzylidene)hydrazinecarboximidamide acetate] | 1.63 | 34 × 10^4 | 800 Spots/10000 Cells | 0.62 | 104.9813 % Cell Survival |  |  |  |  |  | 
N=C(N)N/N=C/c1cccc(Cl)c1Cl [BC2-7-1, (E)-2-(2,3-dichlorobenzylidene)hydrazinecarboximidamide acetate] | 1.00 | 3 × 10^4 | 1300 Spots/10000 Cells | 1.00 | 100.0136 % Cell Survival | 66.7% | 160% |  |  |  | 
N=C(N)N/N=C/c1cccc(Cl)c1 [BC2-9-1, (E)-2-(3-chlorobenzylidene)hydrazinecarboximidamide acetate] | 1.44 | 33 × 10^4 | 900 Spots/10000 Cells | 0.69 | 93.32 % Cell Survival |  |  |  |  |  | 
N=C(N)N/N=C/c1ccccc1F [BC2-11-1, (E)-2-(2-fluorobenzylidene)hydrazinecarboximidamide acetate] | 1.63 | 38 × 10^4 | 800 Spots/10000 Cells | 0.62 | 52.43 % Cell Survival |  |  |  |  |  | 
N=C(N)N/N=C/c1ccc(Cl)cc1 [BC2-13-1, (E)-2-(4-chlorobenzylidene)hydrazinecarboximidamide acetate] | 0.72 | 9 × 10^4 | 1800 Spots/10000 Cells | 1.38 | 68.97 % Cell Survival |  |  |  |  |  | 
N=C(N)N/N=C/c1ccc(F)cc1Cl [BC2-17-1, (E)-2-(2-chloro-4-fluorobenzylidene)hydrazinecarboximidamide acetate] | 1.00 | 16 × 10^4 | 1300 Spots/10000 Cells | 1.00 | 104.8795 % Cell Survival |  |  |  |  |  | 
N=C(N)N/N=C/c1ccc(Cl)cc1F [BC2-19-1, (E)-2-(4-chloro-2-fluorobenzylidene)hydrazinecarboximidamide acetate] | 0.72 | 5 × 10^4 | 1800 Spots/10000 Cells | 1.38 | 64.15 % Cell Survival |  |  |  |  |  | 
COc1cccc(Cl)c1/C=N/NC(=N)N [BC2-25-1, (E)-2-(2-chloro-6-methoxybenzylidene)hydrazinecarboximidamide acetate] | 1.08 | 20 × 10^4 | 1200 Spots/10000 Cells | 0.92 | 51.7 % Cell Survival |  |  |  |  |  | 
N=C(N)N/N=C/c1c(Cl)cccc1C(F)(F)F [BC2-45-1, (E)-2-(2-chloro-6-(trifluoromethyl)benzylidene)hydrazinecarboximidamide acetate] | 0.62 | 10 × 10^4 | 2100 Spots/10000 Cells | 1.62 | 99.19 % Cell Survival |  |  |  |  |  | 
NC(=O)N/N=C/c1ccccc1Cl [JM3-223-2, (E)-2-(2-chlorobenzylidene)hydrazine-1-carboxamide hydrochloride] |  |  |  |  |  | 28% | 118% |  |  |  | 
NC(=O)N/N=C/c1ccccc1I [JM3-225-2, (E)-2-(2-iodobenzylidene)hydrazine-1-carboxamide hydrochloride] |  |  |  |  |  | 22.8% | 96% |  |  |  | 
N=C(N)NNCc1c(Cl)cccc1Cl [JM3-227-2, 2-(2,6-dichlorobenzyl)hydrazine-1-carboximidamide] |  |  |  |  |  |  |  | 27.92% |  |  | 
N=C(N)N/N=C/Cc1c(Cl)cccc1Cl [JM3-239-2, (E)-2-(2-(2,6-dichlorophenyl)ethylidene)hydrazine-1-carboximidamide acetate] |  |  |  |  |  | 28.1% | 119% |  |  |  | 
N=C1NCCCN1/N=C/c1c(Cl)cccc1Cl [JM3-255-2, (E)-1-((2,6-dichlorobenzylidene)amino)tetrahydropyrimidin-2(1H)-imine hydrobromide] |  |  |  |  |  | 24.5% | 104% |  |  |  | 
CN(/N=C/c1c(Cl)cccc1Cl)C(=N)N [JM3-257-2, (E)-2-(2,6-dichlorobenzylidene)-1-methylhydrazine-1-carboximidamide hydroiodide] |  |  |  |  |  | 31.2% | 132% |  |  |  | 
CC(Oc1c(Cl)cccc1Cl)C1=NCCN1 (stereo not shown) [Lofexidine Hcl] |  |  |  |  |  | 35.4% | 107% |  |  |  | 
O=C(/C=C/c1ccccc1)NC(NC(=S)Nc1ccc(Cl)cc1)C(Cl)(Cl)Cl (stereo not shown) [Sal003] |  |  |  |  |  |  |  | 33.17% | 1.03 |  | 
O=C(/C=C/c1ccccc1)NC(NC(=S)Nc1cccc2cccnc12)C(Cl)(Cl)Cl (stereo not shown) [Salubrinal, reference compound] |  |  |  |  |  | 23.8% | 103% |  |  | 38.46% | 116%
